The values below come from patent publication US20210307272A1, “USE OF PLANT GROWTH REGULATORS TO ENHANCE ALGAE GROWTH FOR THE PRODUCTION OF ADDED VALUE PRODUCTS” (priority 2009, published 2021).

What all share (format): cell-based
For test [1], the system named is Chlorella protothecoides. The test is described as follows: Effect of hormone concentrations on growth rate of Chlorella protothecoides, heterotrophic. The settings on record: 48 hours, control 1.54.
In test [2] the test system is Scenedesmus obliquus. The test is described as follows: Effect of hormone concentrations on growth rate of Scenedesmus obliquus, photoheterotrophic. The settings on record: 48 hours, control 0.41.
Test [3] concerns Chlorella protothecoides. Briefly: Effect of hormone concentrations on growth rate of Chlorella protothecoides, photoheterotrophic. The note with it: 48 hours, control 1.05. The procedure:
The influence of light exposure during Scenedesmus obliquus and Chlorella protothecoides growth was assessed. The growth rates of both algae were higher in photoheterotrophic growth conditions. The Scenedesmus obliquus growth rate was about 86.7% higher under photoheterotrophic growth. Meanwhile, the Chlorella protothecoides growth rate increased 39.07% when the growth was conducted under photoheterotrophic growth.

Test [4] relates to Auxenochlorella protothecoides. Briefly: Auxenochlorella protothecoides culture with growth regulator, dry weight and oil after seven days. The note with it: 2 mg/L. The protocol:
Auxenochlorella protothecoides was grown in Bristol's medium (see above) amended with 0.1% yeast extract (see above) and 0.5% glucose (control cells). Two other groups were cultured in the same medium with either indole acetic acid (2 mg/L, Cat. No. 12886, Sigma-Aldrich Canada Ltd.) or giberellic acid (2 mg/L, Cat. No. G7645, Sigma-Aldrich Canada Ltd.) added. Dry weights were determined and compared between the culture groups after seven days.

The subject of test [5] is Scenedesmus obliquus. Briefly: Effect of hormone concentrations on growth rate of Scenedesmus obliquus, heterotrophic. The settings on record: 48 hours, control 0.35.

`O=C(O)Cc1c[nH]c2ccccc12` [Indole-3-acetic acid, indole-3-acetic acid]: the growth rate in test [1] (0.01 ng) is listed as 1.62; in test [1] (0.1 ng), 1.61; in test [1] (1 ng) it was 1.49; in test [1] (10 ng), 1.60; in test [1] (100 ng) it was 1.60; in test [2] (0.01 ng) it was 0.42. The growth rate came to 0.47 in test [2] (0.1 ng); 0.49 in test [2] (1 ng); 0.49 in test [2] (10 ng); 0.62 in test [2] (100 ng); 1.06 in test [3] (0.01 ng); 1.05 in test [3] (0.1 ng). Moreover, the growth rate in test [3] (1 ng) was 0.97; in test [3] (10 ng), 1.13; in test [3] (100 ng), 1.02; in test [5] (0.01 ng), 0.23; in test [5] (0.1 ng) it was 0.36; in test [5] (1 ng), 0.42. In addition, the results for the growth rate in test [5] (10 ng) and in test [5] (100 ng) were 0.47 and 0.41, respectively. In addition, in test [4], the “increase of dry cell mass relative to the control” value came out at 50%. Further, the “increase of oil production” value in test [4] worked out at 15%.

`O=C(O)Cc1cccc2ccccc12` [1-Naphthaleneacetic acid]: the growth rate is given as 1.66 in test [1] (0.01 ng); 1.54 in test [1] (0.1 ng); 1.62 in test [1] (1 ng); 1.57 in test [1] (10 ng); 1.62 in test [1] (100 ng); 0.84 in test [2] (0.01 ng). In addition, the growth rate in test [2] (0.1 ng) worked out at 0.85; in test [2] (1 ng) it was 0.81; in test [2] (10 ng), 0.80; in test [2] (100 ng), 0.73; in test [3] (0.01 ng) it was 1.00; in test [3] (0.1 ng), 1.02. The growth rate in test [3] (1 ng) came out at 1.05; in test [3] (10 ng), 1.07; in test [3] (100 ng), 1.16; in test [5] (0.01 ng) it was 0.26; in test [5] (0.1 ng), 0.28; in test [5] (1 ng) it was 0.33. Besides, the values for the growth rate in test [5] (10 ng) and in test [5] (100 ng) were 0.28 and 0.39, respectively.

Consider `O=C(O)COc1ccc(Cl)cc1Cl` [2,4-Dichlorophenoxyacetic, 2,4-dichlorophenoxyacetic acid], for which the growth rate in test [1] (0.01 ng) is recorded as 1.40; in test [1] (0.1 ng), 1.53; in test [1] (1 ng) it was 1.43; in test [1] (10 ng), 1.31; in test [1] (100 ng), 1.50; in test [2] (0.01 ng), 0.42. Besides, the growth rate amounted to 0.44 in test [2] (0.1 ng); 0.47 in test [2] (1 ng); 0.44 in test [2] (10 ng); 0.33 in test [2] (100 ng); 1.09 in test [3] (0.01 ng); 1.08 in test [3] (0.1 ng). The growth rate in test [3] (1 ng) turned out to be 1.01; in test [3] (10 ng), 1.08; in test [3] (100 ng) it was 1.03; in test [5] (0.01 ng), 0.28; in test [5] (0.1 ng), 0.23; in test [5] (1 ng), 0.31. The growth rate was 0.24 in test [5] (10 ng) and 0.23 in test [5] (100 ng).

On to `C=C1C[C@]23C[C@@]1(O)CC[C@H]2[C@@]12C=C[C@H](O)[C@@](C)(C(=O)O1)[C@H]2[C@@H]3C(=O)O` [Gibberellic acid], for which the growth rate in test [1] (0.01 ng) is reported as 1.52; in test [1] (0.1 ng) it was 1.52; in test [1] (1 ng), 1.46; in test [1] (10 ng) it was 1.52; in test [1] (100 ng), 1.46; in test [2] (0.01 ng) it was 0.59. Moreover, the growth rate in test [2] (0.1 ng) came out at 0.47; in test [2] (1 ng) it was 0.56; in test [2] (10 ng) it was 0.56; in test [2] (100 ng), 0.51; in test [3] (0.01 ng), 1.06; in test [3] (0.1 ng) it was 1.02. In addition, the growth rate is listed as 1.00 in test [3] (1 ng); 1.09 in test [3] (10 ng); 1.10 in test [3] (100 ng); 0.44 in test [5] (0.01 ng); 0.50 in test [5] (0.1 ng); 0.43 in test [5] (1 ng). Further, the growth rate in test [5] (10 ng) is 0.36; in test [5] (100 ng) it was 0.42. For the same compound, the “increase of dry cell mass relative to the control” value in test [4] came out at 20%.

As for `c1ccc(CNc2ncnc3nc[nH]c23)cc1` [6-Benzylaminopurine, 6-benzylaminopurine], the growth rate turned out to be 1.48 in test [1] (0.01 ng); 1.54 in test [1] (0.1 ng); 1.50 in test [1] (1 ng); 1.52 in test [1] (10 ng); 1.46 in test [1] (100 ng); 0.46 in test [2] (0.01 ng). In addition, the growth rate in test [2] (0.1 ng) is on record as 0.37; in test [2] (1 ng) it was 0.47; in test [2] (10 ng), 0.47; in test [2] (100 ng), 0.52; in test [3] (0.01 ng), 1.00; in test [3] (0.1 ng), 1.12. In addition, the growth rate in test [3] (1 ng) stood at 1.07; in test [3] (10 ng), 1.04; in test [3] (100 ng), 1.08; in test [5] (0.01 ng), 0.28; in test [5] (0.1 ng), 0.32; in test [5] (1 ng), 0.39. Moreover, the growth rate in test [5] (10 ng) is on record as 0.36; in test [5] (100 ng) it was 0.33.

As for `c1coc(CNc2ncnc3[nH]cnc23)c1` [Kinetin, kinetin], the growth rate stood at 1.60 in test [1] (0.01 ng); 1.50 in test [1] (0.1 ng); 1.44 in test [1] (1 ng); 1.60 in test [1] (10 ng); 1.58 in test [1] (100 ng); 0.57 in test [2] (0.01 ng). The growth rate in test [2] (0.1 ng) is on record as 0.73; in test [2] (1 ng), 0.92; in test [2] (10 ng) it was 0.37; in test [2] (100 ng) it was 0.36; in test [3] (0.01 ng), 1.08; in test [3] (0.1 ng), 1.10. The growth rate in test [3] (1 ng) was 1.02; in test [3] (10 ng) it was 1.18; in test [3] (100 ng) it was 1.19; in test [5] (0.01 ng), 0.28; in test [5] (0.1 ng), 0.26; in test [5] (1 ng) it was 0.36. Moreover, the growth rate in test [5] (10 ng) came to 0.31; in test [5] (100 ng), 0.28.
